Experimental data as given in US4119710A, “Bronchospasmolytic 1-(p-amino-phenyl)-2-amino-ethanols-(1) and salts” (Boehringer Ingelheim GmbH, priority 1972, dated 1978).

Columns and labels:
β1 -receptors = biological target: T1, β1 -receptors (Felis catus, UniProt Q9TST6); test: β1-blocking activity: antagonism to tachycardia provoked by N-isopropyl-noradrenalin sulfate in anesthetized cats; format: in vivo; settings: cat, iv, d(+)-isomers, tachycardia by 1.0 γ/kg i.v. N-isopropyl-noradrenalin sulfate (Table III), read-out: Blocking Action on β1 -receptors ED50
T1 construct: tested on anesthetized cats; from tissue; host or cells: living anesthetized cat, heart (heart rate)
T1 sequence (Q9TST6 whole entry): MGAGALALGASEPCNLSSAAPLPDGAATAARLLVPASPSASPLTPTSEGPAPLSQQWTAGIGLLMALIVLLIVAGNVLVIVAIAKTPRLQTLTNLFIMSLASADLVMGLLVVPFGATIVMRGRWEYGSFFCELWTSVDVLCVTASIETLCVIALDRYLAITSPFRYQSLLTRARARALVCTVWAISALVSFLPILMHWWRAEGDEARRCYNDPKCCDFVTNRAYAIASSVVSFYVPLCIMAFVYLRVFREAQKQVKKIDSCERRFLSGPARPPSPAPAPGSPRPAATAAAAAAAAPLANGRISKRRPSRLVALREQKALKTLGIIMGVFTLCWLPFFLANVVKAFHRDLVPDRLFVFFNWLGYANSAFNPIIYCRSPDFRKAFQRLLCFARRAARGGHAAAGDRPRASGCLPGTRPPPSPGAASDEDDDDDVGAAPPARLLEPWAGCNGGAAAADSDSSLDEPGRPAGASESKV
Procedure: (§1) The compounds of this invention were tested for toxicity and with regard to their action on the β-receptors in warm-blooded animals, such as cats and guinea pigs, by the methods described below, and the following test results were obtained for representative species of the genus, where
The β1 -blocking activity was tested on anesthetized cats as antagonism to tachycardia provoked by a standard dose of 1.0 γ/kg i.v. of N-isopropyl-noradrenalin sulfate. From the average percentage reduction in heart rate acceleration caused by N-isopropyl-noradrenalin sulfate, obtained by various doses of the test compound in question, a median effective dose (ED50) was determined by graphic extrapolation (see Tables II and III).

β2 -receptors = biological target: T2, β2 -receptors (Cavia porcellus, UniProt Q8K4Z4); test: β2-blocking activity: antagonism to broncholytic activity of N-isopropyl-noradrenalin sulfate in anesthetized guinea pigs (Konzett-Rossler); format: in vivo; settings: guinea pig, iv, d(+)-isomers, 5 γ/kg i.v. N-isopropyl-noradrenalin sulfate after 20 γ/kg i.v. acetylcholine (Table III), read-out: Blocking Action on β2 -receptors ED50
T2 construct: tested on anesthetized guinea pigs; from tissue; host or cells: living anesthetized guinea pig, airways (Konzett-Rossler)
T2 sequence (Q8K4Z4 whole entry): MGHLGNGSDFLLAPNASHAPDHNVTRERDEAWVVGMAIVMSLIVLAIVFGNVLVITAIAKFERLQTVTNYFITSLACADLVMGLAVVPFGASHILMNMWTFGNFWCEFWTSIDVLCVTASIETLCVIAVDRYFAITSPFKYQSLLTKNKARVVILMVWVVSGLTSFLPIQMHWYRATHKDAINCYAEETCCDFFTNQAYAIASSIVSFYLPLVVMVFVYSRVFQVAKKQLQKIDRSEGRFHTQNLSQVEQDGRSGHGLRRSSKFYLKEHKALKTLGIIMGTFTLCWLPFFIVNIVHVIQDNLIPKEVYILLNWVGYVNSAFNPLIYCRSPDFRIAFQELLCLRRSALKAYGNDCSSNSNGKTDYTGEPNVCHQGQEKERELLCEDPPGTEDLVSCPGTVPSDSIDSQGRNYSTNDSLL
Procedure: as §1
The β2 -blocking activity was tested on anesthetized guinea pigs as antagonism to the broncholytic activity which is observed upon administration of 5 γ/kg body weight i.v. of N-isopropyl-noradrenalin sulfate in the test arrangement according to Konzett-Rossler, following the inducement of a bronchospasm caused by a standard dose of 20 γ/kg body weight i.v. of acetylcholine (see Table III).

[1] = acute toxicity in mice (LD50, Litchfield and Wilcoxon); settings: mouse, in vivo, iv, groups of 10, i.v., deaths within 14 days, d(+)-isomers (Table III), read-out: acute toxicity LD50 (Table III)
Procedure: as §1
The acute toxicity of the compounds was determined on groups of 10 mice.

CC(C)(C)NCC(O)c1cc(Cl)c(N)c(C(F)(F)F)c1 (single isomer, unassigned) [G-d(+), d-1-(4'-Amino-3'-chloro-5'-trifluoromethyl-phenyl)-2-tert.butylamino-ethanol]
ED50 (β1 -receptors): 0.0125 mg/kg
ED50 (β2 -receptors): > 2 mg/kg
LD50 at 336 h [1]: 33.2 mg/kg
